Tested on in one assay: not listed separately
The assay can be described thus: Inhibition of recombinant cyclin A/CDK2 expressed in Sf9 cells. The arrangement: species or system Homo sapiens.
Conditions: not given
As usually defined, the IC50 is the concentration that inhibits the measured activity by half. Turning to `Fc1ccccc1-c1cn2ccnc2c(NCc2ccncc2)n1`, the 50% inhibitory concentration (IC50) was 800 nM. `Brc1cnc2c(NCc3ccncc3)cc(-c3ccccc3)cn12`: the half-maximal inhibitory concentration (IC50) is 700 nM. Consider `Brc1cnn2c(NCc3ccncc3)cc(-c3ccccc3)cc12`, for which the IC50 was determined as 4500 nM. The same measure, in the same setting: the same measure for `c1ccc(-c2cc(NCc3ccncc3)n3nccc3n2)cc1`: 500 nM; for `Clc1cccc(-c2cc(NCc3ccncc3)n3nccc3n2)c1Cl`: 500 nM; for `Brc1cnc2c(NCc3ccncc3)nc(-c3ccccc3)cn12`: 440 nM.

In the next assay the test system is A2780. The assay can be described thus: Growth inhibition of A2780 cells after 24 hrs by thymidine incorporation assay. It is filed as functional, cell-based. The settings on record: Homo sapiens, A2780, 24 h.
Compound `Brc1cnc2c(NCc3ccncc3)nc(-c3ccccc3)cn12` yielded a half-maximal inhibitory concentration (IC50) of 2000 nM.

Source of the values: ChEMBL document CHEMBL1140536, “Versatile templates for the development of novel kinase inhibitors: Discovery of novel CDK inhibitors” (Bioorg Med Chem Lett, 2007).
